US6355428B1, “Nucleic acid ligand interaction assays” (Genelabs Technologies, Inc., priority 1998, dated 2002)

How the values were obtained:
[1] = tested on: A/T rich indicator duplex 5′-CTTTATTATTTT-3′ (SEQ ID NO: 2 and complement) versus competitor oligonucleotides; experiment: Fluorescence quenching competition assay with unlabeled competitor duplexes; type: binding; details: for sequence preference from competitor oligos of Table III (FIG. 6): 0.4 μM drug, 0.4 μM unlabeled duplex competitor; for 5 bp A/T site bound most strongly / preferred (FIGS. 11, 12) / discrimination among 5 bp A/T binding sites (FIGS. 11, 12): 5 bp A+T site competitors, Table VI
Excerpt: Direct assays, as described above, are useful for first level screening of ligand-oligonucleotide binding, e.g. preference for DNA vs. RNA, or A/T vs. C/G rich sequences. In a “next-stage” assay, termed herein a competition or competitive assay, a binding oligonucleotide for a particular ligand, such as determined from direct assays, is used as an “indicator” for competitive studies, which give a further level of detail about ligand binding preferences. A competition experiment starts with first and second indicator oligonucleotides, as described above, containing, respectively, a first group effective to produce a detectable signal, and a second group effective to alter this signal. At the beginning of the assay, the ligand is bound to a duplex of the sequences. Again, experimental conditions of temperature, salt content, etc. are preferably adjusted such that, in the absence of the ligand, the oligonucleotides would exist primarily in single-stranded form. As noted above, the preferred temperature is somewhat higher than the Tm of the duplex (in the absence of ligand) under the conditions of the assay. If desired, for the sake of convenience, conditions may be adjusted so that the assay can be carried out at or near room temperature.
At the beginning of the assay, the indicator sequences form a duplex in the presence of the ligand, so fluorescence is at a minimum for the system. (When other detection systems are used, the signal observed will be that in which the first and second groups are in close proximity.) A “competitor” sequence, having no second (e.g. quenching) group, is then added, typically as a duplex with its complementary sequence. The competing sequence tends to remove the ligand from the indicator duplex at concentrations that become lower as the affinity of the competing sequence for the ligand becomes greater. Alternatively, the competing sequence removes the ligand more effectively at concentrations equimolar with the indicator duplex as the affinity of the competing sequence for the ligand becomes greater. As the ligand is removed, the indicator sequences denature to single-stranded form, quenching is no longer effective (in an F/Q system), and fluorescence increases.
Competition Assays: Competition experiments were generally done in […] HEPES, pH 7.5, 0.1 mM EDTA and 50 mM NaCl. The drug concentration used in the competition assays depends upon the affinity of the drug for a given indicator. For the competition experiments shown, the netropsin and distamycin concentrations used were 0.4 μM. The amount of competitor oligo used was varied from 0.2 μM to 1.0 μM. The data shown is from competition experiments using 0.4 μM unlabeled duplex competitors (see Tables III-VI for the sequences of the competitor oligos).
An unlabeled competitor duplex, selected from those whose sequences are given in Table […], was added at a 0.4 μM concentration, and the change in fluorescence was noted.
Changes in fluorescence of the indicator duplex/netropsin mixture on adding each competitor oligonucleotide are given in FIG. 12.

[2] = tested on: RNA 5′-rCUAGAUCUGA-3′ (SEQ ID NO: 23) double stranded RNA probe; experiment: Fluorescence quenching direct binding assay, RNA; details: change in fluorescence similar to single-stranded controls
Protocol: The specific examples described in this section employ fluorescence quenching as the detection system. In these examples, because conditions are adjusted to maintain the oligonucleotides in single-stranded form in the absence of the ligand, the assay starts with the system at a high or maximum level of fluorescence, and fluorescence generally decreases, depending on binding affinity, as the ligand is added.
In the Figure legends, RNA oligonucleotides are denoted by an “r” at the beginning of the sequence, and single stranded controls by “ss” at the end of the sequence. These single stranded sequence, are used alone in control experiments, which thus employ only an “F” strand and no complementary quenching strand. Any quenching of fluorescence that is not due to hybridization can thus be acounted for. Maximum quenching expected on complete hybridization of these oligonucleotides is 85-90%; therefore some signal remains after complete hybridization. The signal is plotted so that it is normalized to the control signal in the absence of ligand.
Netropsin has been shown in previous studies to bind preferentially to A/T rich regions of DNA. […] Netropsin also binds well to the sequence 5′-GCGGTATTT-3′ (SEQ ID NO: 12), which is a useful “indicator” probe (as discussed below), having both C/G and A/T rich sequences. […]

[3] = 5′-XAATTY-3′ competitor series, Table V

preferred 5 bp binding site ([1]; concluded from 5′-XAATTY-3′ series)	Structure (SMILES)	sequence preference from competitor oligos of Table III (FIG. 6) [1]	5 bp A/T site bound most strongly / preferred (FIGS. 11, 12) [1]	discrimination among 5 bp A/T binding sites (FIGS. 11, 12) [1]	binding (decrease in fluorescence, FIG. 3A) [2]	X and Y combinations that competed most effectively (FIG. 9) [1, 3]	sensitivity to bases at the edge of the AATT site (FIGS. 9 and 10) [1, 3]
–	Cn1cc(NC(=O)c2cc(NC(=O)CN=C(N)N)cn2C)cc1C(=O)NCCC(=N)N [Netropsin, netropsin]	strongly prefer A/T rich DNA	slight preference for the AAAAA site	considerably less discrimination	does not bind well	–	–
5′-AATTA-3′	Cn1cc(NC(=O)c2cc(NC(=O)c3cc(NC=O)cn3C)cn2C)cc1C(=O)NCCC(=N)N [Distamycin, distamycin]	strongly prefer A/T rich DNA	5′-AATTA-3′	relatively strong preferences	–	AA/TT, CA/TG, GA/TC, and TA/TA	much more sensitive
